The source of these data is PMC10537105, “Derivatives Incorporating Acridine, Pyrrole, and Thiazolidine Rings as Promising Antitumor Agents” (Molecules, 2023).

Data set [1] relates to HeLa. In words: MTT assay, HeLa cells. In kind it is cell-based, human. The following applies: Homo sapiens, HeLa, 72 h of incubation, read-out: IC50 values ± SD, HeLa. The source says:
(§1) The impact of acridine spiro derivatives 6–10 (Figure 13) on the metabolic activity of various tumor cell lines HCT-116 (human colorectal carcinoma), Jurkat (human leukemia cells), HeLa (human cervical adenocarcinoma), MDA-MB-231, and MCF-7 (human breast adenocarcinoma), and normal cell lines COS-7 (monkey kidney cells) and BJ-5ta (skin fibroblasts) was investigated using the MTT assay. This assay measures the conversion of yellow 3-(4,5-dimethylthiazol-2-yl)-2,5-diphenyltetrazolium bromide (MTT) to insoluble purple formazan by metabolically active cells. The antiproliferative activities of the tested compounds were determined based on the results from the MTT assay, and the inhibitory concentration values (IC50) are presented in Table 5.
(§2) The human cancer cell lines employed in this study were sourced from reputable institutions, including the American Type Culture Collection (ATCC; Manassas, VA, USA) and the European Collection of Authenticated Cell Cultures (ECACC, Salisbury, UK). Specifically, HeLa (93021013, human cervical adenocarcinoma), HCT116 (CCL-247TM, human colorectal carcinoma), and Jurkat (88042803, human leukemic T-cell lymphoma) were cultured in RPMI 1640 medium (Biosera, Kansas City, MO, USA). In contrast, MCF-7 (HTB-22TM, human breast adenocarcinoma, ER+), MDA-MB-231 (HTB-26TM, human breast adenocarcinoma, ER−), and COS-7 (CRL-1651TM, kidney fibroblasts) were nurtured in high-glucose Dulbecco’s Modified Eagle Medium (DMEM) supplemented with sodium pyruvate (Biosera). Furthermore, BJ-5ta (CRL-4001TM, human dermal fibroblasts) was cultured in a composite medium of high-glucose DMEM and M199 (4:1) (Biosera), supplemented with Hygromycin B (0.01 mg/mL; Merck, Darmstadt, Germany). All culture media were enriched with a 10% fetal bovine serum (FBS; Gibco, Thermo Scientific, Rockford, IL, USA) and an antibiotic/antimycotic solution (Merck) to ensure optimal growth conditions. The cells were meticulously maintained within a humidified environment containing 5% CO2 at 37 °C. Regular screenings for mycoplasma contamination were conducted using Hoechst 33342 staining (Merck), confirming the integrity of the cell lines.
(§3) To assess the antiproliferative impact of the synthesized compounds 6–10, their half-maximal inhibitory concentration (IC50) and the MTT colorimetric assay were employed. MDA-MB-231 and MCF-7 cells were seeded into 96-well microplates (SARSTEDT, Nümbrecht, Germany) at a density of 5 × 10^3 cells per well. After 24 h of cell seeding, various concentrations (100, 50, and 10 µmol/L) of acridine derivatives 6–10 were introduced, alongside cisplatin (utilized as a reference) at concentrations of 5, 10, 20, 50, and 100 µmol/L. Subsequent to 24, 48, and 72 h of treatment, the cells in each well underwent incubation with MTT (5 mg/mL, Sigma-Aldrich Chemie, Steinheim, Germany) for 4 h at 37 °C in the dark. During this period, mitochondrial oxidoreductases metabolized MTT, forming insoluble formazan. Following this, 100 µL of SDS (10% […]) was added to dissolve the formazan crystals, and the cells were incubated for an additional 12 h. Absorbance at 540 nm was measured using the automated Cytation™ 3 Cell Imaging Multi-Mode Reader (Biotek, Winooski, VT, USA). Each test was performed in triplicate, and three independent experiments were conducted to ensure precision and reliability.

Data set [2] has as its system HCT-116. Nature of the data set: MTT assay, HCT-116 cells. In kind it is cell-based, human. The note with it: for IC50: Homo sapiens, HCT-116, MTT, 72 h of incubation, read-out: IC50 values ± SD, HCT-116.
From the text: as §1, §2, §3

Data set [3] relates to MCF-7. Nature of the data set: MTT assay, MCF-7 cells. In kind it is cell-based, human. The following applies: Homo sapiens, MCF7, 72 h of incubation, read-out: IC50 values ± SD, MCF-7.
From the text: as §1, §2, §3

The test system of data set [4] is primary brain endothelial cells. Nature of the data set: Endothelial cell viability assay (ATP, CellTiter-Glo). In kind it is cell-based, rats. The following applies: primary rat brain endothelial cells. The text has this:
To comprehensively evaluate the cytotoxic effects of the investigated compounds 6c, 6e, and 8a, 8c, we conducted tests on primary endothelial cells. This additional assessment served multiple purposes in our study. Firstly, it aimed to assess the selectivity of these compounds, particularly in comparison to their effects on both tumor and normal cell lines. […] Secondly, by examining their impact on endothelial cells, we aimed to explore potential off-target effects, as endothelial cells are crucial components of blood vessels and play a pivotal role in angiogenesis—a process intricately linked to tumor growth. Lastly, these tests allowed for a broader safety assessment, beyond the scope of tumor and normal cell lines, providing insights into the compounds’ implications for vascular health and their regulatory role in angiogenesis.
Primary brain endothelial cells were isolated from rats (200–250 g, […]; n = 5 per isolation). Euthanasia was performed by CO2 exposure, followed by brain removal. The brainstem and cerebellum were dissected, and the white matter from the midbrain and choroid plexus was excised under sterile conditions. Cortical tissues were meticulously cleaned of meninges and homogenized on ice in a DMEM-F12 medium (PAA Laboratories GmbH, Cölbe, Germany) with 0.1% bovine serum albumin (BSA, Sigma-Aldrich, St. Louis, MO, USA). The homogenate was centrifuged at 800× g for 10 min at 4 °C. After aspirating the supernatant, the pellet was resuspended in a pre-warmed digestion mix containing 1 mg/mL collagenase/dispase (Roche Diagnostics, Indianapolis, IN, USA) and 10 μg/mL DNase I (Roche Diagnostics, Indianapolis, IN, USA). The homogenates were then incubated with the pre-prepared digestion mix at 37 °C for 30 min with gentle shaking. The preparation was centrifuged at 800× g for 10 min at 4 °C, and the pellets were resuspended in 20% BSA in the medium. The tissues were centrifuged at 1500× g for 15 min at 4 °C to obtain a pellet containing microvessels with a fraction of myelin and BSA on top, which was centrifuged again. The microvessels were pooled and resuspended in a pre-warmed digestion mix and incubated for 15 min at 37 °C. The pellet was then centrifuged at 800× g for 10 min at 4 °C and washed with a serum-containing DMEM-F12 culture medium. […] The endothelial cells were ready to use after 7 days.
The endothelial cell viability was assessed through the quantification of adenosine triphosphate (ATP) released from the cells, utilizing the ATP assay as per the manufacturer’s instructions (The Promega CellTiter-Glo™ Luminescent Cell Viability Assay Kit, Madison, WI, USA). […]

Data set [5] has as its system Jurkat. Nature of the data set: MTT assay, Jurkat cells. In kind it is cell-based, human. The following applies: for IC50: Homo sapiens, Jurkat, MTT, 72 h of incubation, read-out: IC50 values ± SD, Jurkat.
From the text: as §1, §2, §3

Data set [6] deals with COS-7. In words: MTT assay, COS-7 normal cells. The following applies: Primates, COS-7, 72 h of incubation, normal cell line, read-out: IC50 values ± SD, COS-7. In kind it is cell-based, monkey.
From the text: as §1, §2, §3

Data set [7] relates to MDA-MB-231. Nature of the data set: MTT assay, MDA-MB-231 cells. In kind it is cell-based, human. The following applies: Homo sapiens, MDA-MB-231, 72 h of incubation, read-out: IC50 values ± SD, MDA-MB-231.
From the text: as §1, §2, §3

The test system of data set [8] is BJ-5ta. Nature of the data set: MTT assay, BJ-5ta normal fibroblasts. The note with it: Homo sapiens, Fibroblast, 72 h of incubation, normal cell line, read-out: IC50 values ± SD, BJ-5ta. In kind it is cell-based, human.
From the text: as §1, §2, §3

SMILES strings stand for the structures.

As to `CCOC(=O)/C=C1\S/C(=N\N2C(=O)C(C#N)=CC23c2ccccc2Nc2ccccc23)N(c2ccccc2)C1=O` [8a, Ethyl 2-[(2Z,5Z)-2-({4′-cyano-5′-oxo-1′,5′-dihydro-10H-spiro[acridine-9,2′-pyrrol]-1′-yl}imino)-4-oxo-3-phenyl-1,3-thiazolidin-5-ylidene]acetate], the melting point was 256 to 259 °C (dec.). Besides, the IC50 in data set [1] is 5.77 µM. For the same compound, the half-maximal inhibitory concentration (IC50) in data set [2] stood at 5.46 ± 0.04 µM. The concentration for half-maximal inhibition (IC50) in data set [3] amounted to 7.9 ± 0.49 µM. Also, inhibition in [4] was half-maximal at 5 µM (IC50). Further, the IC50 in [5] worked out at 5.67 ± 0.06 µM. For the same compound, the 50% inhibitory concentration (IC50) in data set [6] is 9.15 ± 0.12 µM. Also, the half-maximal inhibitory concentration (IC50) in data set [7] amounted to 7.85 ± 0.69 µM. Besides, the half-inhibitory concentration (IC50) in [8] worked out at 7.25 ± 0.41 µM.
As to `N#CC1=CC2(c3ccccc3Nc3ccccc32)N(NC(=S)Nc2ccc([N+](=O)[O-])cc2)C1=O` [6e, 3-{4′-Cyano-5′-oxo-1′,5′-dihydro-10H-spiro[acridine-9,2′-pyrrol]-1′-yl}-1-(4-nitrophenyl)thiourea], the melting point is 175 to 179 °C (dec.). Further, in data set [1], the IC50 is 52.1 ± 2.99 µM. Further, the IC50 in data set [2] was 19.6 ± 1.07 µM. In addition, the IC50 in data set [3] was 39.7 ± 0.58 µM. For the same compound, inhibition in data set [4] was half-maximal at 45 µM (IC50). The half-maximal inhibitory concentration (IC50) in data set [5] turned out to be 7.82 ± 0.31 µM. Moreover, the IC50 in data set [6] amounted to 87.1 ± 5.82 µM. The IC50 in data set [7] worked out at 78.8 ± 4.87 µM. Moreover, the 50% inhibitory concentration (IC50) in data set [8] amounted to 71.1 ± 2.62 µM.
Turning to `CCOC(=O)/C=C1\S/C(=N\N2C(=O)C(C#N)=CC23c2ccccc2Nc2ccccc23)N(c2cccc(OC)c2)C1=O` [8c, Ethyl 2-[(2Z,5Z)-2-({4′-cyano-5′-oxo-1′,5′-dihydro-10H-spiro[acridine-9,2′-pyrrol]-1′-yl}imino)-3-(3-methoxyphenyl)-4-oxo-1,3-thiazolidin-5-ylidene]acetate], the melting point was 239 to 243 °C (dec.). Also, the IC50 in data set [1] is 5.83 ± 0.03 µM. Besides, in data set [2], the half-maximal inhibitory concentration (IC50) worked out at 5.44 ± 0.05 µM. In data set [3], the 50% inhibitory concentration (IC50) is 7.75 ± 0.41 µM. In data set [4], this compound showed an IC50 of 20 µM. Moreover, in data set [5], the half-maximal inhibitory concentration (IC50) turned out to be 5.67 ± 0.03 µM. Further, in data set [6], the IC50 worked out at 8.95 ± 0.08 µM. Also, the IC50 in [7] was 7.98 ± 0.93 µM. The concentration for half-maximal inhibition (IC50) in [8] came out at 7.18 ± 0.19 µM.
As for `COc1cccc(NC(=S)NN2C(=O)C(C#N)=CC23c2ccccc2Nc2ccccc23)c1` [6c, 3-{4′-Cyano-5′-oxo-1′,5′-dihydro-10H-spiro[acridine-9,2′-pyrrol]-1′-yl}-1-(3-methoxyphenyl)thiourea], the melting point is 184 to 186 °C (dec.). Also, the IC50 in [1] came to 41.1 ± 1.91 µM. In [2], the concentration for half-maximal inhibition (IC50) was 7 ± 0.22 µM. Besides, the “selectivity index, HCT-116 compared to non-tumor cells COS-7 and BJ-5ta” value in data set [2] (ratio of IC50 values) is reported as “exceeding 10”. Also, the IC50 in [3] was determined as 34.2 ± 5.01 µM. The same compound returned a half-inhibitory concentration (IC50) in data set [4] of 39 µM. Also, the IC50 in data set [5] turned out to be 6.47 ± 0.27 µM. For the same compound, the “selectivity index, Jurkat compared to non-tumor cells COS-7 and BJ-5ta” value in [5] (ratio of IC50 values) is “exceeding 10”. In addition, in data set [6], the IC50 was found to be 83.4 ± 4.79 µM. In data set [7], the half-inhibitory concentration (IC50) amounted to 47.2 ± 1.17 µM. In data set [8], the IC50 is 73.2 ± 2.41 µM.
